Test results from US12577234B2, “Antagonists of the muscarinic acetylcholine receptor M4” (Vanderbilt University, priority 2017, dated 2026).

Target: T1, human mAChR M4 (Homo sapiens, UniProt P08173)
T1 construct: expressed in transfected cells; host or cells: CHO-K1 (ATCC), stably co-expressing chimeric G protein Gqi5
T1 sequence (P08173 1-479): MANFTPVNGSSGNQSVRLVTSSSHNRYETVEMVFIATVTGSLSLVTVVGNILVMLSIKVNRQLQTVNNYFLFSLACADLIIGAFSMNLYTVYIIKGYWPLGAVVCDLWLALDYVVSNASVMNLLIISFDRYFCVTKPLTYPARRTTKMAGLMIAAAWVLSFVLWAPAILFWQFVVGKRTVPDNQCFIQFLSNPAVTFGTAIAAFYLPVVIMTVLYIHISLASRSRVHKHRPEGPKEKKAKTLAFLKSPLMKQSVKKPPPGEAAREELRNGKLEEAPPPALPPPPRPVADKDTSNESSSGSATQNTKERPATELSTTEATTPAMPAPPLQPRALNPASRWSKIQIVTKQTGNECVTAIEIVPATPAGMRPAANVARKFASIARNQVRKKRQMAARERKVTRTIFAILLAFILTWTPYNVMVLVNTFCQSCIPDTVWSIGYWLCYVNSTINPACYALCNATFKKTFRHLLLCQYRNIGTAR
Assay: mAChR M4 cell-based functional assay (calcium mobilization, EC80 acetylcholine), human M4
Details: for Emin: human M4, % ACh maximum at 30 μM
Method in brief: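 CHO-K1 cells stably expressing human M4 with chimeric Gqi5; intracellular calcium rise read on FDSS as fluorescence static ratio at 1 Hz. Compounds in 10-point 1:3 dilution series; IC50 taken as concentration-dependent decrease of the EC80 acetylcholine response, four-parameter logistic fit.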

[1] = Table 9, M4/Gqi5/CHO-K1 cells, decrease of EC80 acetylcholine response
[2] = Table 10, M4/Gqi5/CHO-K1 cells, decrease of EC80 acetylcholine response

IC50 [1] [µM]	Emin (Table 9) [%]	Human M4 Emin (Table 10) [%]	IC50 [2] [µM]	IC50 (Table 10, μM) [µM]	SMILES
0.0026	7.8				CCC(C)CN1C[C@H]2C[C@H](Nc3ccc(-c4cc(F)ccc4Cl)nn3)C[C@H]2C1 (stereo partly drawn) [Compound 29, (3aR,5s,6aS)-N-[6-(2-chloro-5-fluoro-phenyl)pyridazin-3-yl]-2-(2-methylbutyl)-3,3a,4,5,6,6a-hexahydro-1H-cyclopenta[c]pyrrol-5-amine]
0.002	2.81				Cc1nn(C)cc1-c1ccc(N[C@H]2C[C@@H]3CN(CC(C)C(C)(C)C)C[C@@H]3C2)nn1 (stereo partly drawn) [Compound 4, (3aR,5s,6aS)-N-[6-(1,3-dimethylpyrazol-4-yl)pyridazin-3-yl]-2-(2,3,3-trimethylbutyl)-3,3a,4,5,6,6a-hexahydro-1H-cyclopenta[c]pyrrol-5-amine]
		4	0.00142		c1cnc2ccc(-c3ccc(N[C@H]4C[C@@H]5CN(CC6CCOCC6)C[C@@H]5C4)nn3)cc2c1 [Compound 181, (3aR,5s,6aS)-N-[6-(6-quinolyl)pyridazin-3-yl]-2-(tetrahydropyran-4-ylmethyl)-3,3a,4,5,6,6a-hexahydro-1H-cyclopenta[c]pyrrol-5-amine]
0.272	3.17				Cc1nn(C)cc1-c1ccc(O[C@@H]2C[C@@H]3CN(CC4CCCCC4)C[C@@H]3C2)nn1 [Compound 49, (3aR,5r,6aS)-2-(cyclohexylmethyl)-5-[6-(1,3-dimethylpyrazol-4-yl)pyridazin-3-yl]oxy-3,3a,4,5,6,6a-hexahydro-1H-cyclopenta[c]pyrrole]
0.0359	2.74				Fc1ccc(Cl)c(-c2ccc(NC[C@H]3C[C@@H]4CN(CC5CC6C=CC5C6)C[C@@H]4C3)nn2)c1 (stereo partly drawn) [Compound 69, N-[[(3aR,5s,6aS)-2-(5-bicyclo[2.2.1]hept-2-enylmethyl)-3,3a,4,5,6,6a-hexahydro-1H-cyclopenta[c]pyrrol-5-yl]methyl]-6-(2-chloro-5-fluoro-phenyl)pyridazin-3-amine]
2.78	3.25				O=C(Nc1ccc(-c2ccc(F)cc2Cl)nn1)C1C[C@@H]2CN(CC3CC4C=CC3C4)C[C@@H]2C1 (stereo partly drawn) [Compound 75, (3aR,6aS)-2-(5-bicyclo[2.2.1]hept-2-enylmethyl)-N-[6-(2-chloro-4-fluoro-phenyl)pyridazin-3-yl]-3,3a,4,5,6,6a-hexahydro-1H-cyclopenta[c]pyrrole-5-carboxamide]
3.38	6.49				Fc1ccc(CN2C[C@H]3CC(COc4ccc(-c5cc(F)ccc5Cl)nn4)C[C@H]3C2)cc1 (stereo partly drawn) [Compound 116, (3aR,6aS)-5-[[6-(2-chloro-5-fluoro-phenyl)pyridazin-3-yl]oxymethyl]-2-[(4-fluorophenyl)methyl]-3,3a,4,5,6,6a-hexahydro-1H-cyclopenta[c]pyrrole]
0.222	3.93				Cc1cnn(C)c1-c1ccc(OCC2C[C@@H]3CN(CC4CCCCC4)C[C@@H]3C2)nn1 (stereo partly drawn) [Compound 83, (3aR,6aS)-2-(cyclohexylmethyl)-5-[[6-(2,4-dimethylpyrazol-3-yl)pyridazin-3-yl]oxymethyl]-3,3a,4,5,6,6a-hexahydro-1H-cyclopenta[c]pyrrole]
0.01	3.22				Cc1nn(C)cc1-c1ccc(N[C@H]2C[C@@H]3CN(Cc4ccccc4)C[C@@H]3C2)nn1 [Compound 8, (3aR,5s,6aS)-2-benzyl-N-[6-(1,3-dimethylpyrazol-4-yl)pyridazin-3-yl]-3,3a,4,5,6,6a-hexahydro-1H-cyclopenta[c]pyrrol-5-amine]
		8	1.58		Cc1nn(C)cc1-c1ccc(N[C@H]2C[C@@H]3CN(CC4CCOCC4)C[C@@H]3C2)nc1 [Compound 152, (3aR,5s,6aS)-N-[5-(1,3-dimethylpyrazol-4-yl)-2-pyridyl]-2-(tetrahydropyran-4-ylmethyl)-3,3a,4,5,6,6a-hexahydro-1H-cyclopenta[c]pyrrol-5-amine]
1.46	6.11				Cc1cccnc1CN1C[C@H]2C[C@@H](Oc3ccc(-c4cc(F)ccc4Cl)nn3)C[C@H]2C1 [Compound 58, (3aR,5r,6aS)-5-[6-(2-chloro-5-fluoro-phenyl)pyridazin-3-yl]oxy-2-[(3-methyl-2-pyridyl)methyl]-3,3a,4,5,6,6a-hexahydro-1H-cyclopenta[c]pyrrole]
2.86	9.09				Cc1cnn(C)c1-c1ccc(OCC2C[C@@H]3CN(Cc4ccccc4)C[C@@H]3C2)nn1 (stereo partly drawn) [Compound 86, (3aR,6aS)-2-benzyl-5-[[6-(2,4-dimethylpyrazol-3-yl)pyridazin-3-yl]oxymethyl]-3,3a,4,5,6,6a-hexahydro-1H-cyclopenta[c]pyrrole]
0.904	4.54				CCC(C)CN1C[C@H]2CC(COc3ccc(-c4c(C)cnn4C)nn3)C[C@H]2C1 (stereo partly drawn) [Compound 81, (3aR,6aS)-5-[[6-(2,4-dimethylpyrazol-3-yl)pyridazin-3-yl]oxymethyl]-2-(2-methylbutyl)-3,3a,4,5,6,6a-hexahydro-1H-cyclopenta[c]pyrrole]
0.041					Cc1nn(C)cc1-c1ccc(N[C@H]2C[C@@H]3CN(Cc4ccccc4F)C[C@@H]3C2)nn1 [compound 10]
3.09	10.9				Cc1cnn(C)c1-c1ccc(OCC2C[C@@H]3CN(CC4CCOCC4)C[C@@H]3C2)nn1 (stereo partly drawn) [Compound 84, (3aR,6aS)-5-[[6-(2,4-dimethylpyrazol-3-yl)pyridazin-3-yl]oxymethyl]-2-(tetrahydropyran-4-ylmethyl)-3,3a,4,5,6,6a-hexahydro-1H-cyclopenta[c]pyrrole]
		4	0.00167		FC1(F)CCN(c2ccc(N[C@H]3C[C@@H]4CN(CC5CCOCC5)C[C@@H]4C3)nn2)CC1 [Compound 190, (3aR,5s,6aS)-N-[6-(4,4-difluoro-1-piperidyl)pyridazin-3-yl]-2-(tetrahydropyran-4-ylmethyl)-3,3a,4,5,6,6a-hexahydro-1H-cyclopenta[c]pyrrol-5-amine]
0.0008	6.3				Cc1cnn(C)c1-c1ccc(N[C@H]2C[C@@H]3CN(CC4CC5C=CC4C5)C[C@@H]3C2)nn1 (stereo partly drawn) [Compound 17, (3aR,5s,6aS)-2-(5-bicyclo[2.2.1]hept-2-enylmethyl)-N-[6-(2,4-dimethylpyrazol-3-yl)pyridazin-3-yl]-3,3a,4,5,6,6a-hexahydro-1H-cyclopenta[c]pyrrol-5-amine]
2.38	5.92				Cc1nn(C)cc1-c1ccc(OCC2C[C@@H]3CN(Cc4ccccc4)C[C@@H]3C2)nn1 (stereo partly drawn) [Compound 100, (3aR,6aS)-2-benzyl-5-[[6-(1,3-dimethylpyrazol-4-yl)pyridazin-3-yl]oxymethyl]-3,3a,4,5,6,6a-hexahydro-1H-cyclopenta[c]pyrrole]
0.004					Cc1nn(C)cc1-c1ccc(N[C@H]2C[C@@H]3CN(CCc4ccccc4)C[C@@H]3C2)nn1 [compound 12]
		68		> 10	c1ccc(-c2cnc(N[C@H]3C[C@@H]4CN(Cc5ccncc5)C[C@@H]4C3)s2)cc1 [Compound 231, N-[(3aR,5s,6aS)-2-(4-pyridylmethyl)-3,3a,4,5,6,6a-hexahydro-1H-cyclopenta[c]pyrrol-5-yl]-5-phenyl-thiazol-2-amine]
		4	0.997		CC(=O)Nc1ccc(-c2ccc(N[C@H]3C[C@@H]4CN(CCC(C)(C)C)C[C@@H]4C3)c(F)c2F)cc1 [Compound 148, N-[4-[4-[[(3aR,5s,6aS)-2-(3,3-dimethylbutyl)-3,3a,4,5,6,6a-hexahydro-1H-cyclopenta[c]pyrrol-5-yl]amino]-2,3-difluoro-phenyl]phenyl]acetamide]
		9	0.00183		c1cc(-c2ccc(N[C@H]3C[C@@H]4CN(CC5CCOCC5)C[C@@H]4C3)nn2)ccn1 [Compound 219, (3aR,5s,6aS)-N-[6-(4-pyridyl)pyridazin-3-yl]-2-(tetrahydropyran-4-ylmethyl)-3,3a,4,5,6,6a-hexahydro-1H-cyclopenta[c]pyrrol-5-amine]
		5	0.124		Cc1nn(C)cc1-c1cnc(N[C@H]2C[C@@H]3CN(CCC(C)(C)C)C[C@@H]3C2)cn1 [Compound 153, (3aR,5s,6aS)-2-(3,3-dimethylbutyl)-N-[5-(1,3-dimethylpyrazol-4-yl)pyrazin-2-yl]-3,3a,4,5,6,6a-hexahydro-1H-cyclopenta[c]pyrrol-5-amine]
		3	0.00502		CC(C)CN1C[C@H]2C[C@H](Nc3ccc(-c4cc(F)ccc4Cl)nn3)C[C@H]2C1 [Compound 177, (3aR,5s,6aS)-N-[6-(2-chloro-5-fluoro-phenyl)pyridazin-3-yl]-2-isobutyl-3,3a,4,5,6,6a-hexahydro-1H-cyclopenta[c]pyrrol-5-amine]
		6	0.0406		c1cc(N2CCCC2)nnc1N[C@H]1C[C@@H]2CN(CC3CCOCC3)C[C@@H]2C1 [Compound 192, (3aR,5s,6aS)-N-(6-pyrrolidin-1-ylpyridazin-3-yl)-2-(tetrahydropyran-4-ylmethyl)-3,3a,4,5,6,6a-hexahydro-1H-cyclopenta[c]pyrrol-5-amine]
